Reference: patent publication US20180271858A1, “SOLUTION FOR ORAL ADMINISTRATION” (OTSUKA PHARMACEUTICAL CO., LTD., priority 2011, published 2018)

Assay: solubility in water (statement in the background section)
Assay type: physicochemical
Conditions: compound (I) or a salt thereof

O=c1ccc2ccc(OCCCCN3CCN(c4cccc5sccc45)CC3)cc2[nH]1 [compound (I), 7-[4-(4-benzo[b]thiophen-4-yl-piperazin-1-yl)butoxy]-1H-quinolin-2-one]
solubility in water: hardly soluble in water
